Experimental data: ChEMBL document CHEMBL1130360, “3-[(3-Hydroxymethyl)-4-hydroxybutyl]imidazo[4,5-b]pyridinesnovel antiviral agents” (Bioorg Med Chem Lett, 1997)
≈ marks a conversion by molar mass, not a printed value.

Experiments:
Human alphaherpesvirus 1 [1] = assay: The compound was tested for the cytopathic effect inhibition against herpes simplex virus 1; Effective concentration required to inhibit 50% virus proliferation; type: functional, organism-based
Human alphaherpesvirus 2 [2] = assay: (§1) The compound was tested for the cytopathic effect inhibition against herpes simplex virus 2; Effective concentration required to inhibit 50% virus proliferation; type: functional, organism-based
HEL [3] = assay: Cytotoxicity of compound against herpes simplex virus-2 infected human embryonic lung cells; type: functional
HEL [4] = assay: Cytotoxicity of compound against human cytomegalo virus infected human embryonic lung cells; type: functional
HEL [5] = assay: Cytotoxicity of compound against varicella zoster virus infected human embryonic lung cells; type: functional
Human betaherpesvirus 5 = assay: The compound was tested for the cytomegalovirus; Effective concentration required to inhibit 50% virus proliferation; type: functional, organism-based
Human alphaherpesvirus 3 [6] = assay: The compound was tested for the viral plaque reduction against VZV virus; Effective concentration required to inhibit 50% virus proliferation; type: functional, organism-based
[7] = Selectivity is determined by CC50/EC50 of VZV virus; type: functional
[8] = Selectivity is determined by CC50/EC50 of cytopathic effect inhibition against herpes simplex virus 1; type: functional
[9] = Selectivity is determined by CC50/EC50 of cytopathic effect inhibition against herpes simplex virus 2; type: functional
[10] = Selectivity is determined by CC50/EC50 of cytomegalovirus; type: functional
HEL [11] = assay: Cytotoxicity of compound against herpes simplex virus 1 infected human embryonic lung cells; type: functional
Human alphaherpesvirus 2 [12] = assay: The compound was tested for the viral plaque reduction against herpes simplex virus 2; Effective concentration required to inhibit 50% virus proliferation; type: functional, organism-based
HEL [13] = assay: The compound was tested for the viral plaque reduction against herpes simplex virus 2; Cytotoxicity concentration required to reduce 50% human embryonic lung cells; type: functional
[14] = Selectivity is determined by CC50/EC50 of viral plaque reduction against herpes simplex virus 1; type: functional
Human alphaherpesvirus 1 [15] = assay: The compound was tested for the viral plaque reduction against herpes simplex virus 1; Effective concentration required to inhibit 50% virus proliferation; type: functional, organism-based
[16] = Selectivity is determined by CC50/EC50 of viral plaque reduction against herpes simplex virus 2; type: functional
Human alphaherpesvirus 3 [17] = assay: as §1

| SMILES | EC50 (Human alphaherpesvirus 1 [1]) [µg/mL] | EC50 (Human alphaherpesvirus 2 [2]) [µg/mL] | CC50 (HEL [3]) [µg/mL] | CC50 (HEL [4]) [µg/mL] | CC50 (HEL [5]) [µg/mL] | EC50 (Human betaherpesvirus 5) [µg/mL] | EC50 (Human alphaherpesvirus 3 [6]) [µg/mL] | SI [7] | SI [8] | SI [9] | SI [10] | CC50 (HEL [11]) [µg/mL] | EC50 (Human alphaherpesvirus 2 [12]) [µg/mL] | CC50 (HEL [13]) [µg/mL] | SI [14] | EC50 (Human alphaherpesvirus 1 [15]) [µg/mL] | SI [16] | EC50 (Human alphaherpesvirus 3 [17]) [µg/mL] |
| --- | --- | --- | --- | --- | --- | --- | --- | --- | --- | --- | --- | --- | --- | --- | --- | --- | --- | --- |
| OCC(CO)CCn1cnc2nc(Cl)c(Cl)cc21 | > 100 | > 100 | > 100 | > 100 | > 100 | > 100 | 49.8 (≈ 172 µM) | >2 | 0 | 0 | 0 |  |  |  |  |  |  |  |
| OCC(CO)CCn1cnc2cc(Cl)c(Cl)nc21 | > 100 | > 100 | > 100 | > 100 | > 100 | > 100 | 11.7 (≈ 40.3 µM) | >8.5 | 0 | 0 | 0 | > 100 |  |  |  |  |  |  |
| Nc1nc2c(ncn2COC(CO)CO)c(=O)[nH]1 [GANCICLOVIR] |  |  |  |  |  | 0.1 (≈ 0.392 µM) |  |  |  |  |  |  |  |  |  |  |  |  |
| CC(=O)OCC(CCn1cnc2cc(Cl)c(Cl)nc21)COC(C)=O |  |  |  |  |  | 132 (≈ 353 µM) |  |  |  |  |  |  |  |  |  |  |  |  |
| Nc1nc2c(cc1Cl)nc(C(F)(F)F)n2CCC(CO)CO | 1.2 (≈ 3.54 µM) | > 100 | > 100 | > 100 | > 100 | > 100 |  |  | >83 | 0 | 0 |  | > 100 | > 100 | 0 | > 100 | 0 |  |
| Nc1nc2c(ncn2COCCO)c(=O)[nH]1 [ACYCLOVIR] |  | 0.2 (≈ 0.888 µM) |  |  |  |  |  |  |  |  |  |  | 1.1 (≈ 4.88 µM) |  |  |  |  | 0.6 (≈ 2.66 µM) |
